Experimental data taken from patent US6743895B1, “Bone stimulating factor” (Osteopharm Inc., priority 1995, dated 2004).
No end group written: not given here.

How the values were obtained:
rats = assay: Bone mineral apposition rate in intact rats after subcutaneous injection of polypeptide, tetracycline labelling; assay type: in vivo, Sprague-Dawley rats; conditions: for Increase of bone apposition rate with respect to the control: non-N-terminus variants (Table Nineteen, FIG. 12); for Bone Apposition Rate, Mean: rats injected with non-N-terminus variants, SEQ ID NO:1 for comparison, lower metaphysis of right femur (Table Nineteen); for Bone stimulatory activity of substituted 10-amino acid polypeptides: rats about 300 grams, 100 nmoles s.c. per animal, N-terminus acetylated, C-terminus amidated, compared with family retaining full charge pattern
Experimental: Experiments were carried out on three groups of six rats weighing between 295 and 320 g. A 1 mg per ml solution of the modified peptide (SEQ ID NO:3) was prepared in 0.1% acetic acid. A 1 mg per ml solution of the normal peptide (SEQ ID NO:1) was prepared in 0.1% acetic acid. Each rat of a first of the groups had subcutaneously injected into its right thigh 0.1 ml of the modified peptide solution. Similarly, each rat of the second group was injected with 0.1 ml of the normal peptide solution. Each rat of the third group, the control group, was injected with 0.1 ml of 0.1% acetic acid solution. Immediately following these injections, each rat was injected intramuscularly with 24 mg per Kg body weight of tetracycline hydrochloride dissolved in 0.5 ml of water. A second dose of tetracycline hydrochloride was administered 48 hours later. The animals were sacrificed 24 hours after the second dose by CO2 narcosis. The lower metaphysis of the right femur was dissected out and fixed in a 10% aqueous solution of formaldehyde buffered at pH 7.2 by acetate buffer. Bone sections were prepared for measurement as described above.
Sprague-Dawley rats were used as test animals to determine bone mineral apposition rate, as described above. Male rats having weights between 280 and 380 g were subject to subcutaneous injection after one week of acclimatization. Each animal was injected with 200 μl of a 0.1% acetic acid test solution, solutions having been prepared at concentrations to obtain a dosage of about 25 nmol of polypeptide per animal. Each test dose was immediately followed by intramuscular injection of 24 mg per Kg of body weight of tetracycline hydrochloride. A second injection of tetracycline was made 48 hours later.
Bone mineral apposition rates were determined by measurements of the lower metaphysis of the right femur, as described previously. Results obtained in the two sets of experiments are summarized in Tables Seven and Eight and graphically depicted in FIGS. 8 and 9.
Bone mineral apposition rates were again determined by measurement of the lower metaphysis of the right femur. Results obtained are summarized in Table Nineteen and graphically depicted in FIG. 12. […]
In a final set of experiments, a polypeptide having the ninth amino acid, cysteine, replaced by the amino acid tyrosine, SEQ ID NO:43, was synthesized and tested for bone stimulatory activity. Four rats (about 300 grams) were each administered with 100 nmoles of material (in 400 μl 20 mM acetic acid solution) by subcutaneous injection along with tetracycline (5 mg per animal in 400 μl water), as described above. A second dosage of tetracycline was administered 48 hours later and the animals sacrificed 24 hours after that. The lower metaphysis of the right femur was examined to determine the bone mineral apposition rate. For comparison, experiments were performed using a control in which no compound was present in the acetic acid solution.

[1] = Stability of dissolved polypeptides (capillary electrophoresis, RP-HPLC); assay type: physicochemical; conditions: for Stability relative to SEQ ID NOs: 7 or 24: general summary of stability tests
Experimental: Each of the polypeptides having the sequences identified as SEQ ID NO: 7 and 24 was dissolved in 5 mM acetic acid to a final concentration of 1 mg/ml and incubated at 37° C. The peptide compositions were analyzed weekly by capillary electrophoresis on a P/ACE 6000 system (Beckman) using 50 mM sodium phosphate pH 2.5 as the running buffer on a 57 cm long×75 μm internal diameter capillary. The incubated peptide (20 μl) was diluted with 80 μl of running buffer, placed in a 500 μl vial prior to injection onto the P/ACE using pressure for 20 seconds. Following electrophoresis of the incubated peptide at 30 kV for 15 min a second run was carried out using freshly dissolved peptide as a control.
Each of the polypeptides was dissolved in 20 mM sodium phosphate pH 3.0, 20 mM ammonium acetate pH 4.0, 20 mM ammonium acetate pH 5.0, 20 mM MES pH 6.0, 20 mM sodium phosphate pH 7.0, 20 mM sodium phosphate pH 7.5, 20 mM sodium phosphate pH 8.0, 20 mM ammonium acetate pH 8.5 or 20 mM ammonium acetate pH 9.5 to a final concentration of 1 mg/ml. The peptide was incubated at 37° C. and the peptide assayed weekly by separation on P/ACE as described above. Some samples were separated by RP-HPLC and the isolated peaks subjected to mass spectroscopic analysis.
The protected polypeptide identified as SEQ ID NO:24 was dissolved in 20 mM or 250 mM ammonium acetate pH 4.5 to a final concentration of 1 mg/ml. In some experiments the buffer was supplemented with 20 mM EDTA. The peptide solution was then incubated at −70° C., −20° C., 4° C. or room temperature (22° C.). Samples were assayed weekly by electrophoresis on the P/ACE as described above and/or by RP-HPLC.
The stability of each of the polypeptides having the amino acid sequences identified as SEQ ID NOs: 25, 26 and 27 was tested as described above.

[2] = about 25 nmol per animal s.c., second, separate set (Table Eight)
[3] = about 125 nmoles of polypeptide per Kg of body weight (Table Twenty)
[4] = approximately 500 gm male Sprague-Dawley rats, 300 nmol/kg bodyweight (Table Twenty-Two)
[5] = male Sprague-Dawley rats 280-380 g, about 25 nmol per animal s.c., first set (Table Seven)
[6] = 20 mM buffers pH 3.0 to 9.5, 1 mg/ml, 37° C.

Substance: Arg Thr Asn Glu His Thr Ala Asp Cys Lys (Ac-RTNEHTADCK-NH2) [SEQ ID NO:9]
- Bone mineral apposition rate, Mean (rats; [2]): 2.83 μm/d
- Mean Bone Apposition Rate (rats; [3]): 2.11 μm/day

Substance: CH3CO-Arg Thr Asn Glu His Thr Ala Glu Cys Lys-NH2 (Ac-RTNEHTAECK-NH2) [SEQ ID NO:25]
- Mean Bone Apposition Rate (rats; Table Twenty-One, FIG. 14, N=4): 1.94 μm/day
- Stability relative to SEQ ID NOs: 7 or 24 [1]: more stable
- Stability in solution ([1]; pH 2.5-3.0 for 20 days): stable

Substance: CH3CO-Arg Thr Gln Glu His Thr Ala Asp Cys Lys-NH2 (Ac-RTQEHTADCK-NH2) [SEQ ID NO:27]
- Mean Bone Apposition Rate (rats; Table Twenty-One, FIG. 14, N=4): 1.72 μm/day
- Stability in solution ([1]; all pHs tested, 37° C. for 3 days): unstable
- Stability relative to SEQ ID NOs: 7 or 24 [1]: significantly less stable

Substance: CH3CO-Arg Thr Gln Glu His Thr Ala Glu Cys Lys-NH2 (Ac-RTQEHTAECK-NH2) [SEQ ID NO:26]
- Mean Bone Apposition Rate (rats; Table Twenty-One, FIG. 14, N=4): 2.88 μm/day
- Mean Bone Apposition Rate (rats; [4]): 2.04 μm/day
- Stability relative to SEQ ID NOs: 7 or 24 [1]: more stable
- Stability in solution ([1]; pH 2.5-3.0, incubated at 37° C.): stable

Substance: GIGKRTNEHTADAKIKPNTLHKKAAETLMVLDQNQP [SEQ ID NO:3]
- Bone mineral apposition rate, Mean (rats; rats 295-320 g, 0.1 ml of 1 mg per ml solution s.c., lower metaphysis of right femur (Table Six)): 1.35 μm/d

Substance: GIGKRTNEHTADCK [SEQ ID NO:8]
- Bone mineral apposition rate, Mean (rats; [2]): 2.09 μm/d

Substance: GIGKRTNEHTADCKIKPNTL [SEQ ID NO:6]
- Bone mineral apposition rate, Mean (rats; [5]): 1.37 μm per day

Substance: GIGKRTNEHTADCKIKPNTLHKKAA [SEQ ID NO:5]
- Bone mineral apposition rate, Mean (rats; [5]): 1.35 μm per day

Substance: GIGKRTNEHTADCKIKPNTLHKKAAETLMV [SEQ ID NO:4]
- Bone mineral apposition rate, Mean (rats; [5]): 1.31 μm per day

Substance: LHKKAAETLMVLD [SEQ ID NO:13]
- Increase of bone apposition rate with respect to the control (rats): none

Substance: LHKKAAETLMVLDQ [SEQ ID NO:12]
- Increase of bone apposition rate with respect to the control (rats): none

Substance: LHKKAAETLMVLDQN [SEQ ID NO:11]
- Increase of bone apposition rate with respect to the control (rats): none

Substance: LHKKAAETLMVLDQNQ [SEQ ID NO:10]
- Increase of bone apposition rate with respect to the control (rats): none

Substance: RTNEHTADCKI [SEQ ID NO:16]
- Increase of bone apposition rate with respect to the control (rats): none
- Bone Apposition Rate, Mean (rats): 1.02 μm/day

Substance: RTNEHTADCKIKPNTLHKKAAETLMVLDQN [SEQ ID NO:15]
- Increase of bone apposition rate with respect to the control (rats): none
- Bone Apposition Rate, Mean (rats): 0.92 μm/day

Substance: SEQ ID NO:24: ten amino acid sequence of SEQ ID NO:9, acetylated at the amino terminus and amidated at the carboxy terminus (Ac-RTNEHTADCK-NH2)
- Mean Bone Apposition Rate (rats; Table Twenty-One, FIG. 14, N=4): 2.04 μm/day
- Mean Bone Apposition Rate (rats; [3]): 2.72 μm/day
- Stability when dissolved in dilute acids ([1]; 5 mM acetic acid, 1 mg/ml, 37° C., analyzed weekly by capillary electrophoresis): degraded overtime
- pH above which the peptide dimerized [1, 6]: > 6.0
- pH at which the peptide was most stable [1, 6]: ~4.5
- pH below which the peptide degraded [1, 6]: < 4.0
- Stability as a powder and when dissolved in pH 4.5 buffer ([1]; 20 mM or 250 mM ammonium acetate pH 4.5, 1 mg/ml): very stable
- Dissolved peptide compared with dry peptide stored at −70° C. ([1]; ammonium acetate pH 4.5, 1 mg/ml, incubated at 4° C., −20° C. or −70° C., up to 28 days): unchanged
- Time after which modification of the peptide was observed (RP-HPLC) ([1]; ammonium acetate pH 4.5, 1 mg/ml, room temperature (22° C.)): 7 days

Substance: SEQ ID NO:34: SEQ ID NO:24 sequence with one amino acid having a charged side chain substituted by alanine; acetylated, amidated (Ac-ATNEHTADCK-NH2)
- Bone stimulatory activity of substituted 10-amino acid polypeptides (rats): lack or to exhibit substantially less bone stimulatory activity

Substance: SEQ ID NO:36: SEQ ID NO:24 sequence with one amino acid having a charged side chain substituted by alanine; acetylated, amidated (Ac-RTNEATADCK-NH2)
- Bone stimulatory activity of substituted 10-amino acid polypeptides (rats): lack or to exhibit substantially less bone stimulatory activity

Substance: SEQ ID NO:37: SEQ ID NO:24 sequence with one amino acid having a charged side chain substituted by alanine; acetylated, amidated (Ac-RTNEHTAACK-NH2)
- Bone stimulatory activity of substituted 10-amino acid polypeptides (rats): lack or to exhibit substantially less bone stimulatory activity

Substance: SEQ ID NO:38: SEQ ID NO:24 sequence with one amino acid having a charged side chain substituted by alanine; acetylated, amidated (Ac-RTNEHTADCA-NH2)
- Bone stimulatory activity of substituted 10-amino acid polypeptides (rats): lack or to exhibit substantially less bone stimulatory activity

Substance: SEQ ID NO:45: third amino acid asparagine replaced by glutamine, eighth aspartic acid by glutaric acid, ninth cysteine by tyrosine (as printed) (Ac-RTQEHTAEYK; not fully specified; also: position 8 stated as glutaric acid replacing Asp, X10 not defined)
- Mean Bone Apposition Rate (rats; [4]): 1.77 μm/day

Substance: TADCKIKPNTLHKKAAETLMVLD [SEQ ID NO:14]
- Increase of bone apposition rate with respect to the control (rats): none
- Bone Apposition Rate, Mean (rats): 0.92 μm/day
